# Results reported in US20100248390A1, “COMPOSITIONS AND METHODS FOR IDENTIFYING LIGANDS OF ODORANT RECEPTORS” (DUKE UNIVERSITY, priority 2009, published 2010).
# Tests used:
# [1] = biological target: T1, mouse odorant receptors (ORs) (Mus musculus, UniProt Q8VG42); assay: CRE-luciferase assay of odorant receptor activation (Dual-Glo, Hana3A cells, RTP1S), dose-response EC50; format: cell-based; details: receptor MOR204-6; for log EC50, MOR204-6: 0 = no response
# T1 construct: OR open reading frames were amplified from genomic DNA; expressed in transfected cells; host or cells: Hana3A cells, co-transfected with RTP1S, CRE-luciferase and pRL-SV40
# T1 sequence (Q8VG42 1-310): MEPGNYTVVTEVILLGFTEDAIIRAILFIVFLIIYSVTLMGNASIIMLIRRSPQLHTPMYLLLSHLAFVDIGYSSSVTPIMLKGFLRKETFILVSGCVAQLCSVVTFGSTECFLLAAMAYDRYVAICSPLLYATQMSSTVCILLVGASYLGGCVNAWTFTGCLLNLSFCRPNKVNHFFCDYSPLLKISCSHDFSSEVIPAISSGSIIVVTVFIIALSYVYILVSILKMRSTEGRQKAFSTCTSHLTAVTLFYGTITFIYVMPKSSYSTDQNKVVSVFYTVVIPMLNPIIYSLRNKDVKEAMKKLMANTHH
# [2] = biological target: T2, mouse odorant receptors (ORs) (Mus musculus, UniProt P23275); assay: as above; format: cell-based; details: receptor MOR256-17; read-out: log EC50 of odorant at MOR256-17 (0 = no response) (converted)
# T2 construct: OR open reading frames were amplified from genomic DNA; expressed in transfected cells; host or cells: Hana3A cells, co-transfected with RTP1S, CRE-luciferase and pRL-SV40
# T2 sequence (P23275 1-312): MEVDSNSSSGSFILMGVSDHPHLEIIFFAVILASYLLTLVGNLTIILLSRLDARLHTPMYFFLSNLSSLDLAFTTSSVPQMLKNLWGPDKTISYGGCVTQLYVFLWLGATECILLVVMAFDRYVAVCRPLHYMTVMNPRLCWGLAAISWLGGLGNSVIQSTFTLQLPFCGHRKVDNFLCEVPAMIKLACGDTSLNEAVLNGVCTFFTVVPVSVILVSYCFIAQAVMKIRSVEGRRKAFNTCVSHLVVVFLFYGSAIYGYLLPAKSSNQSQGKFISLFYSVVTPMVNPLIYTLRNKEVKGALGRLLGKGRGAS
"log EC50, MOR204-6 [1]",EC50 [2],SMILES,other results
−3.625,–,"C=C(C)C1CC=C(C)C(=O)C1 (single isomer, unassigned; (-)) [(−)-Carvone]",–
−3.85,–,C=C(C)[C@H]1CC=C(C)C(=O)C1 [(+)-Carvone],–
–,–,O=c1ccc2ccccc2o1 [Coumarin],"EC50 ([1]; read-out: log EC50 (Table 4 value), MOR204-6 (converted)): 7.96 µM"
–,40.9 µM,CCCCCCCCS [Octanethiol],–
–,38.9 µM,CCCCCCCC(=O)O [Octanoic Acid],–

SMILES,"log EC50, MOR204-6 [1]",EC50 [2],other results
CCCCCCCCC(=O)O [Nonanoic acid],–,20.2 µM,–
